Measured values: patent publication US20180360953A1 (priority 2015, published 2018)
Entries after “also recorded” stand apart in the source; their conditions may differ. Where two headings read alike, the source gives them in different places.

What was measured:
[1] = system: spleen cells; type: cell-based, mice; details: spleen cells 24 hrs; Roflumilast 6.5 μM, Sivelestat 46 μM, Sulfasalazine 100 uM, Aspirin 100 μM
Procedure: In this example, the signaling induced by neutrophil inhibitors were examined to provide insight into mechanisms used to promote immunoglobulin class switching and production of IgG and/or IgA antibodies. In these experiments, the spleen cells of nice mice were cultured 24 hrs without or with neutrophil inhibitor (roflumilast (Phosphodiesterase-4 inhibitor), sivelestat (Neutrophil elastase inhibitor), sulfasalazine (Neutrophil NET inhibitor), or aspirin (COX inhibitor)). Gene expression was analyzed by qRT-PCR for BAFF, AID, TGFb, and IL-10. Mice were divided into 5 groups: (1) Control (Media) (2) Roflumilast (6.5 μM) (3) Sivelestat (46 μM) (4) Sulfasalazine (100 uM) and (5) Aspirin (100 μM).

[2] = system: spleen cells; type: cell-based, mice; details: 100 μM
[3] = system: spleen cells; type: cell-based, mice
[4] = system: Spleen cells of naïve C57BL/6 mice; type: cell-based
[5] = system: neutrophils and mast cells; details: cited from earlier work
[6] = system: spleen cells; type: cell-based, mice; details: 24 hrs, 48 μM
[7] = system: F1-V-specific Ab responses; parameters: species or system mice; details: mouse, in vivo
[8] = system: spleen cells; type: cell-based, mice; details: 5 days; for IgG and IgA secreted in culture supernatants of spleen cells / IgM secreted in culture supernatants of spleen cells: increasing doses
Procedure: (§1) Single cell suspensions of spleen cells, mesenteric lymph nodes were resuspended (2×10^6 cells/ml) in RPMI 1640 supplemented with L-glutamine, HEPES, penicillin, streptomycin and 10% heat-inactivated fetal calf serum. Cells were cultured for 1, 5, or 6 days at 37° C. and 5% CO2 in the presence of various doses of the neutrophil elastase inhibitor Sivelestat (ONO-5046, C20H22N2O7S) or Alvelestat (AZD9668, C25H22F3N5O4S) (Selleckchem, Houston, Tex.). In selected experiments, neutrophil elastase inhibitors were added to cells cultured in the presence of Salmonella typhimurium LPS (0.05 μg/ml, Sigma, Saint Louis, Mo.).
(§2) […] described by ELISA, using goat anti-murine IgM, IgG, and IgA antibodies (Southern Biotech, Birmingham, Ala.) and extrapolation against standards.

[9] = system: PA-specific Ab responses; parameters: species or system mice; details: mouse, in vivo
[10] = system: mucosal homing receptors CCR9 and a4b7; type: cell-based; details: spleen and mesenteric lymph node cells of naïve mice, 48 hours, Alvelestat 50 or 200 mM
Procedure: Spleen (A) and mesenteric lymph node (B) cells of naïve mice were cultures for 48 hours in the absence or in the presence of the NEI Alvelestat ([…]). The expression of mucosal homing receptors CCR9 and a4b7 by B lymphocytes, and T lymphocytes was analyzed by flow cytometry.

[11] = system: mucosal homing receptors CCR9 and a4b7; parameters: species or system mice; details: mouse, ip
[12] = system: Bacillus anthracis lethal toxin (LeTx); type: in vivo, mice; details: Day 21
[13] = system: spleen cells; type: cell-based, mice; remark: listed apart in the source
[14] = system: PA-specific Ab responses; parameters: species or system mice; details: mouse, in vivo; remark: listed apart in the source
[15] = system: CD4+ T helper cells; parameters: species or system mice; details: mouse, in vivo
[16] = system: OVA-specific Ab responses; parameters: species or system mice; details: mouse, in vivo, ip
[17] = system: OVA-specific Ab responses; parameters: species or system mice; details: mouse, in vivo
[18] = system: mesenteric lymph node cells; type: cell-based, mice; details: 5-days culture
Procedure: as §1, §2

CC(=O)Oc1ccccc1C(=O)O [Acetyl-salicylic acid (ASA), acetylsalicylic acid]
genes involved in immunoglobulin class switching (BAFF, AID, TGFb, and IL-10) [1]: differentially regulate | IgA secretion by spleen cells (frequency of IgA secreting cells, ELISPOT) [2]: enhanced | IgG and IgA production (immunofluorescence on cytospins) [3]: enhanced | Relative stimulation of IgA secretion [4]: ++ | Dose effect (Relative stimulation of IgA) ([4]; 10 uM): uM (++) | Dose effect (Relative stimulation of IgA) ([4]; 100 uM): uM (++) | Dose effect (Relative stimulation of IgA) ([4]; 500 uM): uM (+)

O=C(Nc1c(Cl)cncc1Cl)c1ccc(OC(F)F)c(OCC2CC2)c1 [Roflumilast]
genes involved in immunoglobulin class switching (BAFF, AID, TGFb, and IL-10) [1]: differentially regulate | Relative stimulation of IgA secretion [4]: + | Dose effect (Relative stimulation of IgA) ([4]; 0.062 uM): uM (−) | Dose effect (Relative stimulation of IgA) ([4]; 0.62 uM): uM (−) | Dose effect (Relative stimulation of IgA) ([4]; 6.2 uM): uM (+)

O=C1CCC(N2C(=O)c3ccccc3C2=O)C(=O)N1 (stereo not drawn) [thalidomide]
ET formation in neutrophils and mast cells [5]: significantly inhibit

CC(C)(C)C(=O)Oc1ccc(S(=O)(=O)Nc2ccccc2C(=O)NCC(=O)O)cc1 [Sivelestat, sivelestat]
genes involved in immunoglobulin class switching (BAFF, AID, TGFb, and IL-10) [1]: differentially regulate | IgA secretion by spleen cells (frequency of IgA secreting cells, ELISPOT) [2]: enhanced | IgG and IgA production (immunofluorescence on cytospins) [3]: larger increases | AID mRNA synthesis [6]: stimulated | Relative stimulation of IgA secretion [4]: ++ | Dose effect (Relative stimulation of IgA) ([4]; 4.6 uM): uM (+) | Dose effect (Relative stimulation of IgA) ([4]; 46 uM): uM (++) | Dose effect (Relative stimulation of IgA) ([4]; 230 uM): uM (++) | IgA responses by a sublingual vaccine [7]: promotes | secretion of IgG and IgA by splenocytes cultured in the presence of LPS ([8]; LPS 0.05 μg/ml): increased | IgG and IgA secreted in culture supernatants of spleen cells [8]: dose-dependent increase | IgM secreted in culture supernatants of spleen cells [8]: reduced | PA-specific salivary IgA response [9]: enhances | PA-specific serum IgA response [9]: enhances | PA-specific serum IgG1 response [9]: enhances | PA-specific serum IgG2c response [9]: did not affect

O=C(O)c1cc(/N=N/c2ccc(S(=O)(=O)Nc3ccccn3)cc2)ccc1O [Sulfasalazine, sulfasalazine]
genes involved in immunoglobulin class switching (BAFF, AID, TGFb, and IL-10) [1]: differentially regulate | IgA secretion by spleen cells (frequency of IgA secreting cells, ELISPOT) [2]: enhanced | ET formation in neutrophils and mast cells [5]: significantly inhibit | Relative stimulation of IgA secretion [4]: +++ | Dose effect (Relative stimulation of IgA) ([4]; 10 uM): uM (++) | Dose effect (Relative stimulation of IgA) ([4]; 100 uM): uM (+++) | Dose effect (Relative stimulation of IgA) ([4]; 1000 uM): uM (+)

Cc1c(-c2ccnn2C)cc(C(=O)NCc2ccc(S(C)(=O)=O)cn2)c(=O)n1-c1cccc(C(F)(F)F)c1 [Alvelestat, alvelestat]
expression of gut homing receptors (CCR9 and a4b7) by B and T cells in vitro [10]: promotes expression | expression of gut homing receptors (CCR9 and a4b7) by B and T cells in vivo [11]: promotes expression | serum anti-PA neutralizing antibody titers ([12]; sublingual EdTx and NEI, listed as NEI): significantly increased; also recorded: enhanced neutralizing activity | serum anti-PA neutralizing antibodies ([12]; sublingual antigen plus NEI): low and comparable levels | frequency of CD4+ T cells [13]: increased | High affinity PA-specific IgG1 and IgA Ab responses [14]: high affinity antibodies; also recorded: promotes high affinity Abs | titers of PA-specific IgG1 and IgA responses [14]: enhanced | AID mRNA synthesis [6]: stimulated | all CD4+ T helper cytokine responses, including Th1, Th2, Th17 and Tfh [15]: significantly increased | frequencies of IL-4+ CD4+ cells [15]: lower frequencies | frequencies of IL-10+ CD4+ T cells and IL-17+ CD4+ T cells [15]: higher frequencies | frequencies of Th1 cells (IFNγ+ CD4+ T cells and TNFα+ CD4+ T cells) [15]: same frequencies | frequencies of Th2 cells producing IL-5 [15]: similar | frequencies of antigen-specific IL-21+ CD4 T cells [15]: same frequencies | kinetic and magnitude of OVA-specific serum IgG [16]: enhances | mucosal IgA responses in the gut (OVA-specific, fecal extracts) [16]: promotes | OVA-specific serum IgE response [17]: no IgE response was detected | OVA-specific serum IgE responses induced by EdTx [17]: significantly reduced; also recorded: suppresses | OVA-specific serum IgG1 responses in the absence of EdTx [17]: increased | OVA-specific serum IgG1 responses induced by EdTx [17]: increased the magnitude; also recorded: enhances | OVA-specific serum IgG2a/c, or IgG3 in the absence of EdTx [17]: no evidence that the NEI enhanced | OVA-specific serum IgG2b responses induced by EdTx as adjuvant [17]: significantly increased; also recorded: enhances | antigen-specific IgA in gut (fecal extracts) [17]: did not stimulate | antigen-specific IgA responses in vaginal washes [17]: only non-significant levels | fecal IgA responses [17]: resulted in induction of fecal IgA responses | vaginal IgG responses induced by EdTx as adjuvant [17]: enhance | IgG and IgA in culture supernatants of mesenteric lymph node cells [18]: higher levels | IgA production by spleen cells cultured in the presence of LPS ([8]; LPS 0.05 μg/ml): significant increase | IgG and IgA secreted in culture supernatants of spleen cells [8]: increased | IgM secreted in culture supernatants of spleen cells [8]: reduced
